Results published in patent US20050107465A1, “Composition for treating inflammatory bowel disease” (priority 2003, published 2005).
Entries after “also recorded” stand apart in the source; their conditions may differ.

Tested on: MAdCAM-1 expression in murine colon microvessel endothelial cells
Experiment: Western blot assay for TNF-α induced MAdCAM-1 expression in murine colon microvessel endothelial cells
Assay type: cell-based
Conditions: EC monolayer pre-treated with test agent, then TNF-α 20 ng/ml for 24 hours, western blot densitometry (FIG. 2)
Experimental: A line of murine colon microvessel endothelial cells was developed for use as an in vitro model of colon inflammatory adhesion molecule expression in IBD. Immortomouse mice were used as tissue sources for these studies. Colon segments were sterilely removed and treated with collagenase (0.2%, 45 min) and cultured in d-valine MEM with IFN-g (10 U/ml) with 2% FCS and non-essential amino acids and vitamins. These cells were cultured on gelatin and were maintained at 37 C. for 24 hours prior to exposure to treatment protocols. In treatments, cells cultured on 24 well plates were incubated in either medium, or medium containing antioxidant or antioxidant admixture ± vitamin E TPGS for 24-48 hour prior to the administration of inflammatory cytokine (TNF-α, 20 ng/ml). At 24 hours combined treatments, monolayers were evaluated for MAdCAM-1 by standard western blotting.
EC cells developed as above were cultured in 2% fetal calf serum, with 50 U/ml interferon-gamma, d-valine supplemented MEM, 1% penicillin/streptomycin and 1 % non-essential amino acids using tissue culture were pre-coated with 1 % gelatin. Adhesion molecule expression was measured in these cells by switching cells to medium without interferon, culturing for 48 hours and then pre-treating cells with test agents for 24 hours prior to exposure to TNF-α for an additional 24 hours. MAdCAM-1 expression was measured using standard western blotting procedures described above. One hundred μg of protein was loaded per lane in non-denaturing sample buffer (w/o mercaptoethanol) and electrophoresed, and subsequently transferred to nitrocellulose. After blocking (5% milk, 2 h), blots were incubated in MAdCAM-1 antibody (10 ug/ml) for 12 hours and reacted by enhanced chemiluminescence (ECL). Gels were analyzed by densitometric analysis by scanning x-ray replicas of the exposed blots.
A murine colon microvessel endothelial cell line (EC monolayer) was developed as described above. Cytokine induced MAdCAM-1 expression in these cells was determined via Western Blot assay described above. An initial experiment evaluated the ability of gamma-tocopherol alone or formulated with vitamin E TPGS to block cytokine induction of MAdCAM-1 in this cell line is shown in FIG. 2.

Compound | effect on cytokine induced MAdCAM-1 expression (in words) | effect on cytokine induced MAdCAM-1 expression (in words) (listed as coenzyme Q10) | decrease in MAdCAM-1 expression | effect on cytokine induced MAdCAM-1 expression (in words) (listed as vitamin E TGPS)
COC1=C(OC)C(=O)C(C/C=C(\C)CC/C=C(\C)CC/C=C(\C)CC/C=C(\C)CC/C=C(\C)CC/C=C(\C)CC/C=C(\C)CC/C=C(\C)CC/C=C(\C)CCC=C(C)C)=C(C)C1=O [Coenzyme Q10] | less beneficial than alpha-tocopherol therapy | relatively minor effect | – | –
Cc1c(C)c2c(c(C)c1O)CC[C@@](C)(CCC[C@H](C)CCC[C@H](C)CCCC(C)C)O2 [alpha-tocopherol] | relatively minor effect; also recorded: significantly less effective than gamma-tocopherol alone | – | – | –
Cc1c(O)cc2c(c1C)O[C@](C)(CCC[C@H](C)CCC[C@H](C)CCCC(C)C)CC2 [gamma-tocopherol] | significantly decrease | – | at least 50% | –
vitamin E TPGS | relatively small effect; also recorded: only a slight decrease | – | – | relatively minor effect
